Experimental data: US20150257378A1, “PHEROMONE ATTRACTANTS FOR TAWNY CRAZY ANTS” (STERLING INTERNATIONAL INC., priority 2014, published 2015)

What was measured:
N. fulva workers = assay: Field trapping experiments with baited sticky traps; format: in vivo, Nylanderia fulva; details: for attraction compared with blank control: Exp. 8, full factorial design, n-undecane 6-7 mg/day, 2-tridecanone 1 mg/day, formic acid 27-30 mg/d, three days
Procedure: Nine field trapping experiments were carried out in an old oak woodland with sandy soil and low grass understory at La Marque, Tex., USA (29° 21′23.73″N; 95° 0′9.47″W), using Terro® “Spider & Insect Traps” (sticky traps; Woodstream Corporation, Lititz, Pa.) or Rescue!® crawling insect sticky traps (described, for example in U.S. Application Publication No. 2013/0318860 A1, herein incorporated by reference in its entirety). All the tested dispensers were placed in the center of sticky surface on the bottom of the trap. An unbaited sticky trap was included in each experiment block for all the experiments as a blank control.
Experiments 1 and 2 were conducted simultaneously in summer. Exp. 1 tested two synthetic Dufour's gland pheromone candidate mixtures identified from N. fulva workers (treatment “A”: a mix of eight compounds at near natural ratios from workers: n-undecane, 2-tridecanone, n-decane, 1-undecene, n-tridecane, 2-dodecanone, 2-tetradecanone, 2-pentadecanone; 41:53:1.2:0.5:1:2:0.3:1) and queens (treatment “B”: a mix of four compounds at near natural ratios: n-undecane, 2-tridecanone, n-tridecane and 2-pentadecanone; 54:40:1:5) plus a synthetic binary blend of the two major components (undecane and 2-tridecanone at 50:50 ratio) identified from both workers and queens (treatment “C”) (Table in FIG. 3) using centrifuge tube dispensers with low loading (30 mg each mixture on a small cotton ball inside an open cap 2-ml centrifuge dispenser) at about 2 mg/day (mg/d) release in a randomized block design (6 blocks) using Terro® “Spider & Insect Traps”. Traps were placed on the ground in lines with 2 meters (m) between traps within each set, 3 m between trap sets. […] Experiment 2 was distanced about 15 m away from Exp. 1. The tawny crazy ant population level at the testing site was relatively high and ubiquitous throughout the landscape, as the tawny crazy ant population was actively foraging over the entire surface of the woodland understory and up every tree. The weather was sunny with a mean daily temperature of 28.6° C.
Experiments 3 and 4 were conducted simultaneously in the fall. Exp. 3 tested two synthetic Dufour's gland pheromone candidate mixtures mimicking the N. fulva workers (treatment “A”: a mix of eight compounds; 100 mg loading) and queens (treatment “B”: a mix of four compounds; 100 mg loading) using centrifuge dispensers (with one small cotton ball in each) with low release rate (ca. 2 mg/d), one positive control (treatment “C”: yellow plastic cap loaded with 1 g of Advance® Granular Carpenter Ant Bait, BASF Corporation, NJ, USA), plus a blank control (“D”), in a randomized block design (6 blocks/sets) using the Rescue!® crawling insect sticky traps. Same as in Exp. 1-2, the traps were placed were placed on the ground in lines with 2 m between traps within each set, 3 m between trap sets. […] Exp. 4 was distanced 20 m from Exp. 3. The weather was sunny with a mean daily temperature of 23.4° C. for days 1 and 2. On Day 3 the weather was overcast with a mean daily temperature of 25.3° C. and 0.97 cm of rainfall.
Experiments 5 and 6 were conducted simultaneously in late fall. Exp. 5 tested potential attraction of N. fulva workers to a synthetic mixture mimicking the full blend of N. fulva worker Dufour's gland pheromone (treatment “A”: a mix of eight compounds; 100 mg mixed with 400 μl canola oil (CO) from a stickpack dispenser; 8-12 mg/d), a synthetic pheromone candidate of N. fulva poison gland, formic acid (FA) (treatment “B”; 438 mg FA mixed with 812 mg of polyurethane inside an open 2-ml centrifuge tube; at 27-30 mg/d release) and their combination (treatment “C”) plus a blank control (“D”) in a randomized block design (6 blocks/sets) using the Rescue!® crawling insect sticky traps. Traps were again placed on the ground in lines with 2 m between traps within each set, 3 m between trap sets.

[1] = test system: workers of the red imported fire ants; details: contact/fumigation; cited from earlier work
[2] = test system: Argentine ant (Linepithema humile) workers; details: mixed with the baits; cited from earlier work
L. humile workers = details: mixed in insecticide sprays; cited from earlier work

CCCCCCCCCCCC(C)=O [2-tridecanone]
attraction compared with blank control (N. fulva workers): not different from the blank control
toxicity to fire ant workers [1]: strong contact/fumigation toxicity

CCCCCC/C=C\CCCCCCCC=O [Z-9-hexadecenal]
effect on consumption of sugar-based liquid baits by ant workers [2]: increase the consumption
effect on killing efficacy of insecticides (L. humile workers): increase the killing efficacy

O=CO [formic acid]
significance of difference from blank control (N. fulva workers; Exp. 5, late fall, low temperature and rain): no significant differences
N. fulva workers caught compared with blank control (in words) (N. fulva workers; Exp. 5, late fall, low temperature and rain, mix of 8 at 8-12 mg/d, formic acid at 27-30 mg/d): twice as many
attraction of N. fulva workers (N. fulva workers; Exp. 7, summer, high ant populations, mix of 8 at 8-12 mg/d, formic acid at 27-30 mg/d): inactive
attraction compared with blank control (N. fulva workers): not different from the blank control
toxicity to fire ant workers [1]: strong contact/fumigation toxicity

CCCCCCCCCCC [n-undecane]
attraction compared with blank control (N. fulva workers): significantly attractive
attraction of tawny crazy ant workers (N. fulva workers; Exp. 9, fall, n-undecane from stickpack at 9-11 mg/d): weakly, but significantly attractive
toxicity to fire ant workers [1]: strong contact/fumigation toxicity
